Data set [1] deals with C. albicans (NCYC1467). The data set is classed as cell-based, Candida albicans. As to conditions: for MIC: NCYC1467, 16 h; for MBC: NCYC1467, 18 h. As for the experimental part:
(§1) The antimicrobial activity of both natural and designed peptides was evaluated by MIC and MBC assays utilizing the broth dilution method. Microorganisms including S. aureus (NCTC10788), MRSA (NCTC 12493 and ATCC43300), Escherichia coli (E. coli) (NCTC 10418), Pseudomonas aeruginosa (P. aeruginosa) (ATCC 27853), Candida albicans (C. albicans) (NCYC 1467) and four clinical MRSA strains (DTMR8, DTMR24, DTMR37, and DTMR121) obtained at the First People’s Hospital of Zhenjiang, China were used. Molecular identification of these four clinical isolates was performed by PCR targeting mecA gene prior to use. After incubation of peptides (ranging from 1 μM to 512 μM, twofold serial dilution) and diluted microorganism cultures for 16 h, the absorbance values of the wells of the 96-well plates were detected at 550 nm with a Synergy HT plate reader (Biotech, United States) and the MICs were defined as the lowest concentration of peptides at which no apparent growth was detected. Ten microliters of culture in the wells were loaded onto Mueller-Hinton agar (MHA) medium and incubated at 37°C for another 18 h. The MBC of the peptide against a microbe was defined as the lowest concentration at which no evidence of colony growth was observed. Five replications were employed for all peptides with different concentrations and controls, and all measurements were made in triplicate.

Data set [2] concerns E. coli (NCTC10418). It counts as cell-based, Escherichia coli. As to conditions: for MIC: NCTC10418, 16 h. As for the experimental part:
as §1

Data set [3] has as its system S. aureus (NCTC10788). The data set is classed as cell-based, Staphylococcus aureus. The settings on record: for MIC: NCTC10788, 16 h; for MBC: NCTC10788, 18 h. How it is done:
as §1

Data set [4] relates to mature MRSA biofilm. It counts as cell-based, methicillin-resistant S. aureus. How it is done: Minimum biofilm eradication concentration (MBEC) assay was carried out with a modified microtiter plate method as described previously ([Gao et al., 2017]).
FIGURE 4 Minimum biofilm eradication concentration (MBEC) of peptides against mature MRSA biofilm. All data represent means ± SD from three independent experiments performed in triplicate (^∗∗∗∗P < 0.0001 versus the viability of the corresponding concentration of nigrocin-HL).

The test system of data set [5] is human keratinocyte cell line HaCaT. The data set is classed as cell-based. How it is done: (§2) Human keratinocyte cell line HaCaT and human bronchial epithelial cell line 16HBE were obtained from the ATCC. Cells were harvested and diluted to 5 × 10^4 cells/ml using fresh medium. Ninety-nine microliters of diluted cells and 1 μl of peptides (final concentration ranging from 1 to 512 μM, twofold serial dilution, five duplicates) were mixed and seeded into 96-well culture plates. After incubation for 24 h, 10 μl CCK-8 was added into each well, followed by incubation at 37°C for 2 h. Absorbance of each well was determined, and the viabilities of cells were calculated as percentages of the control.
(§3) FIGURE 5 Toxicities of nigrocin-HL and its analog nigrocin-HLM in vitro and in vivo. Cytotoxicity of nigrocin-HL and nigrocin-HLM against (A) HaCaT and (B) 16HBE. Living cells after treatment with peptides were measured utilizing CCK8 assays, and viability was calculated relative to the untreated control. (C) Hemolysis of nigrocin-HL and nigrocin-HLM was determined against horse erythrocytes. All data represent mean ± SD from three independent experiments performed in triplicate (^∗P < 0.05, ^∗∗∗P < 0.001, compared with nigrocin-HL control group; ^###P < 0.001, compared with nigrocin-HLM control group). (D) In vivo toxicities of these two AMPs. Survival rate of mice in 7 days after single i.p. injection of nigrocin-HL and nigrocin-HLM (20 and 40 mg/kg) was recorded.

The subject of data set [6] is human bronchial epithelial cell line 16HBE. It counts as cell-based. As for the experimental part: as §2, §3
The test system of data set [7] is P. aeruginosa (ATCC27853). It counts as cell-based, Pseudomonas aeruginosa. How it is done: as §1
In data set [8] the test system is horse erythrocytes. It counts as cell-based. How it is done: Hemolytic property of peptides was measured using erythrocytes prepared from defibrinated horse blood (TCS Biosciences, Botolph Claydon, Buckingham, United Kingdom) as indicated previously ([Wu et al., 2016]).
as §3

The test system of data set [9] is clinical MRSA strain DTMR37. It counts as cell-based, methicillin-resistant S. aureus. How it is done: as §1
Data set [10] concerns MRSA (ATCC43300). The data set is classed as cell-based, methicillin-resistant S. aureus. How it is done: as §1
The subject of data set [11] is clinical MRSA strain DTMR8. It counts as cell-based, methicillin-resistant S. aureus. How it is done: as §1
Data set [12] has as its system clinical MRSA strain DTMR24. It counts as cell-based, methicillin-resistant S. aureus. As for the experimental part: as §1
In data set [13] the test system is clinical MRSA strain DTMR121. The data set is classed as cell-based, methicillin-resistant S. aureus. How it is done: as §1
The subject of data set [14] is MRSA (NCTC12493). The data set is classed as cell-based, methicillin-resistant S. aureus. The settings on record: NCTC12493, 16 h. As for the experimental part:
as §1

For data set [15], the system named is BALB/c mice. As to the kind of experiment: In vivo acute toxicity, 7-day mortality. The settings on record: single i.p. injection. How it is done:
Mice were administered with 20.0 and 40 mg/kg of nigrocin-HL and nigrocin-HLM (i.p.) and a 7-day mortality was recorded.
as §3

Data set [16] in a line: Circular dichroism, percentage of α-helix by K2D3. The data set is classed as physicochemical. As to conditions: CD 190-250 nm, 20°C, 50% TFE in 10 mM ammonium acetate buffer, 100 μM peptide (legend: 50 μM). As for the experimental part:
Additionally, circular dichroism (CD) analyses were carried out utilizing a JASCO J815 Spectropolarimeter (JASCO Inc., United States). Samples were measured within the range of 190-250 nm at 20°C. The parameters were set as: 200 nm/min scanning speed, a bandwidth of 1 nm, and 0.5 nm data pitch. Both peptide samples were dissolved in […] ammonium acetate buffer and 50% TFE in 10 mM ammonium acetate buffer at a concentration of 100 μM. The percentage of the α-helix structure was predicted by the website […]^2 ([Louis-Jeune et al., 2012]).
In general terms: Circular dichroism is widely used to follow secondary structure.

Where a SMILES comes first, the peptide text is derived from it.

`CC[C@H](C)[C@H](NC(=O)CNC(=O)[C@H](CO)NC(=O)[C@H](CC(C)C)NC(=O)[C@H](CC(C)C)NC(=O)CN)C(=O)N[C@@H](CC(C)C)C(=O)NCC(=O)N[C@@H](C)C(=O)NCC(=O)N[C@@H](CCCCN)C(=O)N[C@@H](CCCCN)C(=O)N[C@H](C(=O)N[C@H](C(=O)O)C(C)C)[C@@H](C)CC` [Nigrocin-HLD] (H-GLLSGILGAGKKIV-OH; N-terminus and C-terminus assumed): the MIC – broadly, the lowest concentration found to suppress growth – in data set [1] was 42.43 µg/mL; in [2], 84.87 µg/mL; in data set [3], 42.43 µg/mL. Also, the MBC in data set [1] stood at 339.46 µg/mL; in data set [3], 169.73 µg/mL.

For the molecule `CC[C@H](C)[C@H](NC(=O)CNC(=O)[C@H](CO)NC(=O)[C@H](CC(C)C)NC(=O)[C@H](CC(C)C)NC(=O)CN)C(=O)N[C@@H](CC(C)C)C(=O)NCC(=O)N[C@@H](C)C(=O)NCC(=O)N[C@@H](CCCCN)C(=O)N[C@@H](CCCCN)C(=O)N[C@H](C(=O)N[C@H](C(=O)N[C@@H](Cc1ccccc1)C(N)=O)C(C)C)[C@@H](C)CC` [Nigrocin-HLM] (H-GLLSGILGAGKKIVF-NH2), in data set [4], the MBEC was found to be 8 µM. The minimal inhibitory concentration (MIC) amounted to 2.94 µg/mL in [1]; 11.77 µg/mL in [2]; 32 µM in data set [7] (ATCC27853, 16 h); 1 µM in data set [9] (clinical strain DTMR37, 16 h); 1 µM in data set [10] (ATCC43300, 16 h); 1 µM in data set [11] (clinical strain DTMR8, 16 h). Moreover, the MIC is 1 µM in [12] (clinical strain DTMR24, 16 h); 1 µM in [13] (clinical strain DTMR121, 16 h); 4 µM in [14]; 2.94 µg/mL in data set [3]. Also, the MBC in data set [1] worked out at 5.89 µg/mL; in data set [2] (NCTC10418, 18 h) it was 23.55 µg/mL; in [7] (ATCC27853, 18 h), 32 µM; in [9] (clinical strain DTMR37, 18 h) it was 2.94 µg/mL; in data set [10] (ATCC43300, 18 h), 5.89 µg/mL; in [11] (clinical strain DTMR8, 18 h), 2.94 µg/mL. Further, the MBC was 1.47/1.47 mg/l in data set [12] (clinical strain DTMR24, 18 h); 1.47/1.47 mg/l in data set [13] (clinical strain DTMR121, 18 h); 5.89 µg/mL in data set [3]. The “lowest dosage at which cell growth inhibition occurred” value in data set [5] and in [6] was over 512 µM throughout. The “concentration up to which devoid of hemolytic activity” value in [8] was over 128 µM. The “hemolytic activity (in words)” value in data set [8] was “negligible hemolytic activity”. The 7-day mortality entry in [15] (20 mg/kg) and in data set [15] (40 mg/kg) was “no mortality was observed” in each case.

In turn, `CC[C@H](C)[C@H](NC(=O)CNC(=O)[C@H](CO)NC(=O)[C@H](CC(C)C)NC(=O)[C@H](CC(C)C)NC(=O)CN)C(=O)N[C@@H](CC(C)C)C(=O)NCC(=O)N[C@@H](C)C(=O)NCC(=O)N[C@@H](CCCCN)C(=O)N[C@@H](CCCCN)C(=O)N[C@H](C(=O)N[C@H](C(=O)N[C@H]1CSSC[C@@H](C(=O)O)NC(=O)[C@H](CC(C)C)NC(=O)CNC(=O)[C@H](CO)NC(=O)[C@H](CC(C)C)NC(=O)CNC1=O)C(C)C)[C@@H](C)CC` [Nigrocin-HL] (HELM PEPTIDE1{G.L.L.S.G.I.L.G.A.G.K.K.I.V.C.G.L.S.G.L.C}$PEPTIDE1,PEPTIDE1,15:R3-21:R3$$$V2.0; N-terminus and C-terminus assumed) yielded an MBEC in data set [4] of over 16 µM. The MIC is 62.70 µg/mL in data set [1], 125.40 µg/mL in [2] and 62.70 µg/mL in data set [3]. Moreover, the MBC in data set [1] came out at 501.61 µg/mL; in data set [3] it was 250.81 µg/mL. Further, the “lowest dosage at which cell growth inhibition occurred” value in [5] and in data set [6] was 32 µM throughout. Also, the “Helicity (%)” value in [16] is on record as 31.28%. Besides, in data set [8], the “hemolytic activity (in words)” value is recorded as “obvious hemolysis”. Moreover, the 7-day mortality result in data set [15] (20 mg/kg) and in data set [15] (40 mg/kg) was “mice all died from day 3 to day 7” in each case.

The values are drawn from publication PMC6280737, “Modification Targeting the “Rana Box” Motif of a Novel Nigrocin Peptide From Hylarana latouchii Enhances and Broadens Its Potency Against Multiple Bacteria” (Frontiers in Microbiology, 2018).
